Reference: patent publication US9914730B2, “Azaquinazoline inhibitors of Atypical protein Kinase C” (Ignyta, Inc., priority 2012, dated 2018)

Target: T1, full-length human PKCι (Homo sapiens, UniProt P41743)
T1 construct: Recombinant, full-length human PKCι expressed in Sf21 insect cells is also commercially available; purchased; host or cells: Sf21 insect cells
T1 sequence (P41743 1-596): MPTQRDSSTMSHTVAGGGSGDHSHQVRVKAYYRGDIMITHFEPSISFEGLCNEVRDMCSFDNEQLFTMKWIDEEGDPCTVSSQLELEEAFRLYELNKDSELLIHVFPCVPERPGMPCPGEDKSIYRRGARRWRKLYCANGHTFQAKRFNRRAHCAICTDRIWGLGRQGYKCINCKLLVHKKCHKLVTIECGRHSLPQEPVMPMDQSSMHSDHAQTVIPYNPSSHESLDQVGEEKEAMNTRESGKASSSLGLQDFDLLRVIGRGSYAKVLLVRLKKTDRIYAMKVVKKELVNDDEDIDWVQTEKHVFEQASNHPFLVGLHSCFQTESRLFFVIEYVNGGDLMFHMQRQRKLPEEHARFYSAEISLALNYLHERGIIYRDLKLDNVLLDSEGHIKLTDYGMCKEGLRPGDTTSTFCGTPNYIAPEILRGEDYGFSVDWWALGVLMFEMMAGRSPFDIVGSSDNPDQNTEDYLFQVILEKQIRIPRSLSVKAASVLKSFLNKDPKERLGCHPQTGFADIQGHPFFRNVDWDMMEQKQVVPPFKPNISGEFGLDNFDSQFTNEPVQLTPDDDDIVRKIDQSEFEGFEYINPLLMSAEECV
Assay: PKCι IC50 IMAP assay, full-length PKCι at 150 μM ATP
Assay type: biochemical
Details: read-out: IC50 in IMAP assay against full length PKCi at 150 μM ATP
Procedure, shortened: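 Full-length human PKCι from Sf21 cells, typically 15 pM, with 100 nM 5FAM-PKCε pseudosubstrate peptide and 150 μM ATP (5× apparent KM), 60 min at room temperature, 4% DMSO. IMAP fluorescence polarisation read-out; inhibition normalised to no-compound and no-enzyme controls, IC50 from curve fit.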

Row | IC50 | SMILES
1 | < 100 nM | COc1cncc2nc(-c3ccnc(Nc4cc(C)ccn4)c3)nc(N3CCNCC3)c12 [Example 363, [4-(5-Methoxy-4-piperazin-1-yl-pyrido[3,4-d]pyrimidin-2-yl)-pyridin-2-yl]-(4-methyl-pyridin-2-yl)-amine]
2 | < 100 nM | N[C@H]1CCC[C@H]1C(=O)Nc1cc(-c2nc(N3CCNCC3)c3c(C4CC4)cncc3n2)ccn1 [Example 561, (1R,2S)-2-Amino-cyclopentane-carboxylic acid [4-(5-cyclopropyl-4-piperazin-1-yl-pyrido[3,4-d]pyrimidin-2-yl)-pyridin-2-yl]-amide]
3 | < 100 nM | NC(=O)Cc1ccc(Nc2cc(-c3nc(N[C@@H]4CCNC4)c4ccncc4n3)ccn2)cc1 [Example 313, 2-(4-{4-[4-((R)-Pyrrolidin-3-ylamino)-pyrido[3,4-d]pyrimidin-2-yl]-pyridin-2-ylamino}-phenyl)-acetamide]
4 | 10000 to 40000 nM | c1cc(-c2nc(N[C@@H]3CCOC3)c3ccncc3n2)ccn1 [Example 42, N-[(3R)-oxolan-3-yl]-2-(pyridin-4-yl)-pyrido[3,4-d]-pyrimidin-4-amine]
5 | < 100 nM | COCc1cc2c(-c3nc(N4CCNCC4)c4c(C5CCC5)cncc4n3)ccnc2[nH]1 [Example 2080, 5-Cyclobutyl-2-(2-methoxymethyl-1H-pyrrolo[2,3-b]pyridin-4-yl)-4-piperazin-1-yl-pyrido[3,4-d]pyrimidine]
6 | 1000 to 10000 nM | c1cc2c(N[C@@H]3CCNC3)nc(N3CCOCC3)nc2cn1 [Example 1011, (2-Morpholin-4-yl-pyrido[3,4-d]pyrimidin-4-yl)-(R)-pyrrolidin-3-yl-amine]
7 | 1000 to 10000 nM | COc1cncc2nc(-c3ccnc(Nc4ccccc4)c3)nc(N[C@@H]3CCN(CC(N)=O)C3)c12 [Example 245, 2-{3-[5-Methoxy-2-(2-phenylamino-pyridin-4-yl)-pyrido[3,4-d]pyrimidin-4-ylamino]-R-pyrrolidin-1-yl}-acetamide]
8 | 100 to 1000 nM | N#Cc1cc(F)c(Nc2cc(-c3nc(N4CCNCC4)c4c(C5CC5)cncc4n3)ccn2)c(F)c1 [Example 740, 4-[4-(5-Cyclopropyl-4-piperazin-1-yl-pyrido[3,4-d]pyrimidin-2-yl)-pyridin-2-ylamino]-3,5-difluoro-benzonitrile]
9 | < 100 nM | Cc1cccc(Nc2cc(-c3nc(N4CCNCC4)c4c(C5CC5)cncc4n3)ccn2)c1F [Example 574, [4-(5-Cyclopropyl-4-piperazin-1-yl-pyrido[3,4-d]pyrimidin-2-yl)-pyridin-2-yl]-(2-fluoro-3-methyl-phenyl)-amine]
10 | 1000 to 10000 nM | COc1cncc2nc(-c3ccncc3)nc(N3CCNC(C(=O)NCc4ccccc4)C3)c12 (centres unmarked) [Example 157, 4-(5-Methoxy-2-pyridin-4-yl-pyrido[3,4-d]pyrimidin-4-yl)-piperazine-2-carboxylic acid benzylamide]
11 | < 100 nM | Cc1ccc(F)c(Nc2cc(-c3nc(N4CCNCC4)c4c(C5CC5)cncc4n3)ccn2)c1 [Example 504, [4-(5-Cyclopropyl-4-piperazin-1-yl-pyrido[3,4-d]pyrimidin-2-yl)-pyridin-2-yl]-(2-fluoro-5-methyl-phenyl)-amine]
12 | 1000 to 10000 nM | Cn1cc(-c2nccc3c(NC[C@@H](N)Cc4ccccc4)nc(-c4ccncc4)nc23)cn1 [Example 98, N-[(2S)-2-amino-3-phenylpropyl]-8-(1-methyl-1H-pyrazol-4-yl)-2-(pyridin-4-yl)-pyrido[3,4-d]-pyrimidin-4-amine]
13 | 100 to 1000 nM | c1cc(-c2nc(N3CCNCC3)c3c(C4CCC4)cncc3n2)c2c3c([nH]c2n1)CCCC3 [Example 2199, 4-(5-Cyclobutyl-4-piperazin-1-yl-pyrido[3,4-d]pyrimidin-2-yl)-6,7,8,9-tetrahydro-5H-pyrido[2,3-b]indole]
14 | < 100 nM | Fc1cccnc1Nc1cc(-c2nc(N3CCNCC3)c3c(C4CCC4)cncc3n2)ccn1 [Example 784, [4-(5-Cyclobutyl-4-piperazin-1-yl-pyrido[3,4-d]pyrimidin-2-yl)-pyridin-2-yl]-(3-fluoro-pyridin-2-yl)-amine]
15 | < 100 nM | Fc1cccc(F)c1Nc1cc(-c2nc(N3CCNCC3)c3c(C(F)(F)F)cncc3n2)ccn1 [Example 2193, (2,6-Difluoro-phenyl)-[4-(4-piperazin-1-yl-5-trifluoromethyl-pyrido[3,4-d]pyrimidin-2-yl)-pyridin-2-yl]-amine]
16 | < 100 nM | CC(C)(C)Nc1cc(-c2nc(N3CCNCC3)c3c(C4CC4)cncc3n2)ccn1 [Example 520, tert-Butyl-[4-(5-cyclopropyl-4-piperazin-1-yl-pyrido[3,4-d]pyrimidin-2-yl)-pyridin-2-yl]-amine]

Row | IC50 | SMILES
17 | 100 to 1000 nM | Nc1cccc(-c2nccc3c(NC[C@@H](N)Cc4ccccc4)nc(-c4ccncc4)nc23)c1 [Example 109, N-[(2S)-2-amino-3-phenylpropyl]-8-(3-aminophenyl)-2-(pyridin-4-yl)pyrido[3,4-d]pyrimidin-4-amine]
18 | < 100 nM | Fc1ccc(-c2cc3c(-c4nc(N5CCNCC5)c5c(C6CC6)cncc5n4)ccnc3[nH]2)cc1 [Example 1230, 5-Cyclopropyl-2-[2-(4-fluoro-phenyl)-1H-pyrrolo[2,3-b]pyridin-4-yl]-4-piperazin-1-yl-pyrido[3,4-d]pyrimidine]
19 | < 100 nM | Cn1cnc(Nc2cc(-c3nc(N4CCNCC4)c4c(C5CC5)cncc4n3)ccn2)c1 [Example 605, [4-(5-Cyclopropyl-4-piperazin-1-yl-pyrido[3,4-d]pyrimidin-2-yl)-pyridin-2-yl]-(1-methyl-1H-imidazol-4-yl)-amine]
20 | < 100 nM | C[C@@H](Nc1cc(-c2nc(N3CCNC(C)(C)C3)c3c(C4CC4)cncc3n2)ccn1)C1CC1 [Example 2006, {4-[5-Cyclopropyl-4-(3,3-dimethyl-piperazin-1-yl)-pyrido[3,4-d]pyrimidin-2-yl]-pyridin-2-yl}-((R)-1-cyclopropyl-ethyl)-amine]
21 | < 100 nM | c1cc(-c2nc(N[C@@H]3CCNC3)c3ccncc3n2)ccn1 [Example 7, (3R)-N-[2-(pyridin-4-yl)pyrido[3,4-d]-pyrimidin-4-yl]-pyrrolidin-3-amine]
22 | < 100 nM | COc1cncc2nc(-c3ccnc(Nc4ncccc4F)c3)nc(N3CCNCC3)c12 [Example 411, (3-Fluoro-pyridin-2-yl)-[4-(5-methoxy-4-piperazin-1-yl-pyrido[3,4-d]pyrimidin-2-yl)-pyridin-2-yl]-amine]
23 | < 100 nM | Cc1ncccc1Nc1cc(-c2nc(N3CCNCC3)c3c(C4CC4)cncc3n2)ccn1 [Example 544, [4-(5-Cyclopropyl-4-piperazin-1-yl-pyrido[3,4-d]pyrimidin-2-yl)-pyridin-2-yl]-(2-methyl-pyridin-3-yl)-amine]
24 | < 100 nM | CC(C)c1cccc(Nc2cc(-c3nc(N4CCNCC4)c4c(C5CC5)cncc4n3)ccn2)c1 [Example 622, [4-(5-Cyclopropyl-4-piperazin-1-yl-pyrido[3,4-d]pyrimidin-2-yl)-pyridin-2-yl]-(3-isopropyl-phenyl)-amine]
25 | < 100 nM | CC(C)(C)c1cc2c(-c3nc(N4CCNCC4)c4c(C5CC5)cnc(C5CC5)c4n3)ccnc2[nH]1 [Example 2190, 2-(2-tert-Butyl-1H-pyrrolo[2,3-b]pyridin-4-yl)-5,8-dicyclopropyl-4-piperazin-1-yl-pyrido[3,4-d]pyrimidine]
26 | < 100 nM | O=C(Nc1cc(-c2nc(N3CCNCC3)c3c(C4CC4)cncc3n2)ccn1)C(F)(F)c1ccccc1 [Example 2126, N-[4-(5-Cyclopropyl-4-piperazin-1-yl-pyrido[3,4-d]pyrimidin-2-yl)-pyridin-2-yl]-2,2-difluoro-2-phenyl-acetamide]
27 | 10000 to 40000 nM | Cc1nccc2c(N3CCNCC3)nc(-c3ccncc3)nc12 [Example 160, 8-Methyl-4-piperazin-1-yl-2-pyridin-4-yl-pyrido[3,4-d]pyrimidine]
28 | < 100 nM | OC1CCN(c2nc(-c3ccnc(Nc4cccc(N5CCNCC5)c4)c3)nc3cncc(C4CC4)c23)CC1 [Example 729, 1-{5-Cyclopropyl-2-[2-(3-piperazin-1-yl-phenylamino)-pyridin-4-yl]-pyrido[3,4-d]pyrimidin-4-yl}-piperidin-4-ol]
29 | 100 to 1000 nM | COc1cncc2nc(N3CCOCC3)nc(N3CCN[C@@H](CO)C3)c12 [Example 1005, [(R)-4-(5-Methoxy-2-morpholin-4-yl-pyrido[3,4-d]pyrimidin-4-yl)-piperazin-2-yl]-methanol]
30 | 100 to 1000 nM | N[C@H](CNc1nc(-c2ccncc2)nc2c(-c3cccc(Cl)c3)nccc12)Cc1ccccc1 [Example 102, N-[(2S)-2-amino-3-phenylpropyl]-8-(3-chloro-phenyl)-2-(pyridin-4-yl)-pyrido[3,4-d]-pyrimidin-4-amine]
31 | < 100 nM | FC(F)(F)c1ccccc1Nc1cc(-c2nc(N3CCNCC3)c3c(C4CC4)cncc3n2)ccn1 [Example 516, [4-(5-Cyclopropyl-4-piperazin-1-yl-pyrido[3,4-d]pyrimidin-2-yl)-pyridin-2-yl]-(2-trifluoromethyl-phenyl)-amine]
32 | < 100 nM | c1ccc2c(c1)CC(Nc1cc(-c3nc(N4CCNCC4)c4c(C5CC5)cncc4n3)ccn1)C2 [Example 2097]
